Earlier results on two molecules are cited in patent publication US12455270B2, “Mesh for dissolution test” (Shionogi & Co., Ltd., priority 2019, dated 2025).

For data set [1] the following is noted: input parameter of GastroPlus simulation.
The conditions of data set [2]: input parameter of GastroPlus simulation. The source holds these as a separate data set.

In the case of `NC(=O)N1c2ccccc2C=Cc2ccccc21` [Carbamazepine], in data set [1], the CL is 0.9087 L/h, the “Plasma Fup” value is recorded as 28.8%, the Vc is recorded as 0.6971 L/kg and the k12 was 0.165 h⁻¹. In addition, the logP – broadly, a log measure of how a compound divides between an organic and an aqueous phase – in data set [2] is recorded as 1.8.

For the molecule `Cc1ccc(-c2cc(C(F)(F)F)nn2-c2ccc(S(N)(=O)=O)cc2)cc1` [Celecoxib], in data set [1], the CL is 28.558 L/h, the “Plasma Fup” value is 2.1%, the Vc was 1.0902 L/kg and the k12 is 0.1955 h⁻¹. In data set [1], the k21 is 0.07268 h⁻¹. For the same molecule, the logP in data set [2] is 4.21.
